Results taken from article PMC6001238, “Iterative Chemical Engineering of Vancomycin Leads to Novel Vancomycin Analogs With a High in Vitro Therapeutic Index” (Frontiers in Microbiology, 2018).
Values after ≈ are worked out from the molar mass of the structure shown.

Tests used:
E. faecalis VSE 1 = experiment: MIC, broth microdilution, vancomycin-sensitive E. faecalis (VSE 1); type: cell-based, Enterococcus faecalis; conditions: for MIC: Enterococcus faecalis VSE 1 (vancomycin-sensitive), read-out: MIC; for MIC-fold improvement vs. vancomycin: VSE 1, ratio of MIC of vancomycin and MIC of analogue
Procedure, shortened: (§1)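 Following CLSI antimicrobial susceptibility standards, organisms were tested by broth microdilution. Controls comprised ultrapure water plus broth left uninoculated. For a single condition, 10 μM vancomycin (final) accompanied the analog or control agent.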

E. faecalis VRE 6 = experiment: MIC, broth microdilution, vancomycin-resistant E. faecalis VRE 6 (VanA); type: cell-based, Enterococcus faecalis; conditions: for MIC: Enterococcus faecalis VRE 6 (vancomycin-resistant), read-out: MIC; for MIC-fold improvement vs. vancomycin: VRE 6, ratio of MIC of vancomycin and MIC of analogue
Procedure, shortened: as §1

E. faecalis VRE 53 = experiment: MIC, broth microdilution, vancomycin-resistant E. faecalis VRE 53 (VanA); type: cell-based, Enterococcus faecalis; conditions: for MIC: Enterococcus faecalis VRE 53 (vancomycin-resistant), read-out: MIC; for MIC-fold improvement vs. vancomycin: VRE 53, ratio of MIC of vancomycin and MIC of analogue
Procedure, shortened: as §1

E. faecalis VRE 29 = experiment: MIC, broth microdilution, vancomycin-resistant E. faecalis VRE 29 (VanA); type: cell-based, Enterococcus faecalis; conditions: for MIC: Enterococcus faecalis VRE 29 (vancomycin-resistant), read-out: MIC; for MIC-fold improvement vs. vancomycin: VRE 29, ratio of MIC of vancomycin and MIC of analogue
Procedure, shortened: as §1

E. faecalis VRE 37 = experiment: MIC, broth microdilution, vancomycin-resistant E. faecalis VRE 37 (VanA); type: cell-based, Enterococcus faecalis; conditions: Enterococcus faecalis VRE 37 (vancomycin-resistant); read-out: MIC
Procedure, shortened: as §1

[1] = system: Murine leukemia (L1210) cells; experiment: Cytostatic activity, L1210 cell proliferation; type: cell-based; conditions: mean ± SD of three experiments; highest concentration tested 250 µM; 2 days; read-out: Toxicity (IC50) L1210
Procedure, shortened: (§2)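 Readout: Coulter cell number after drug exposure at 37°C. Durations differ by line (L1210 2 days; CEM 3 days; HeLa 4 days). Stock suspension 300,000–500,000 cells/mL, diluted by mixing with compound. Endpoint: IC50 vs negative control.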

[2] = system: human T-lymphocyte (CEM) cells; experiment: Cytostatic activity, CEM cell proliferation; type: cell-based; conditions: mean ± SD of three experiments; highest concentration tested 250 µM; 3 days; read-out: Toxicity (IC50) CEM
Procedure, shortened: as §2

[3] = system: human cervix carcinoma (HeLa) cells; experiment: Cytostatic activity, HeLa cell proliferation; type: cell-based; conditions: mean ± SD of three experiments; highest concentration tested 250 µM; 4 days; read-out: Toxicity (IC50) HeLa
Procedure, shortened: as §2

[4] = system: L1210, CEM and HeLa cell lines; experiment: Cytostatic activity, average or summary over L1210, CEM and HeLa; type: cell-based; conditions: average of L1210, CEM and HeLa; read-out: Toxicity (IC50) Average
Procedure, shortened: as §2

[5] = system: S. aureus VSSA (ATCC 6538); experiment: MIC, broth microdilution, vancomycin-sensitive S. aureus (VSSA/MSSA, ATCC 6538); type: cell-based, Staphylococcus aureus; conditions: for MIC: Staphylococcus aureus VSSA, read-out: MIC; for MIC-fold improvement vs. vancomycin: VSSA, ratio of MIC of vancomycin and MIC of analogue
Procedure, shortened: as §1

S. aureus VISA/HIP5827 = experiment: MIC, broth microdilution, vancomycin-intermediate S. aureus VISA HIP5827; type: cell-based, Staphylococcus aureus; conditions: for MIC: Staphylococcus aureus VISA/HIP5827, read-out: MIC; for MIC-fold improvement vs. vancomycin: VISA/HIP5827, ratio of MIC of vancomycin and MIC of analogue
Procedure, shortened: as §1

S. aureus VRSA = experiment: MIC, broth microdilution, vancomycin-resistant S. aureus (VRSA); type: cell-based, Staphylococcus aureus; conditions: for MIC: Staphylococcus aureus VRSA, read-out: MIC; for MIC-fold improvement vs. vancomycin: VRSA, ratio of MIC of vancomycin and MIC of analogue
Procedure, shortened: as §1

MRSA KS2 = experiment: MIC, broth microdilution, MRSA KS2; type: cell-based, Staphylococcus aureus; conditions: for MIC-fold improvement vs. vancomycin: MRSA KS2, ratio of MIC of vancomycin and MIC of analogue; for MIC: Staphylococcus aureus MRSA KS2, read-out: MIC
Procedure, shortened: as §1

MRSA KS6 = experiment: MIC, broth microdilution, MRSA KS6; type: cell-based, Staphylococcus aureus; conditions: for MIC-fold improvement vs. vancomycin: MRSA KS6, ratio of MIC of vancomycin and MIC of analogue; for MIC: Staphylococcus aureus MRSA KS6, read-out: MIC
Procedure, shortened: as §1

MRSA KS89 = experiment: MIC, broth microdilution, MRSA KS89; type: cell-based, Staphylococcus aureus; conditions: for MIC-fold improvement vs. vancomycin: MRSA KS8, ratio of MIC of vancomycin and MIC of analogue; for MIC: Staphylococcus aureus MRSA KS8, read-out: MIC
Procedure, shortened: as §1

MRSA KS1 = experiment: MIC, broth microdilution, MRSA KS1; type: cell-based, Staphylococcus aureus; conditions: for MIC-fold improvement vs. vancomycin: MRSA KS1, ratio of MIC of vancomycin and MIC of analogue; for MIC: Staphylococcus aureus MRSA KS1, read-out: MIC
Procedure, shortened: as §1

CNC(CC(C)C)C(=O)NC1C(=O)NC(CC(N)=O)C(=O)NC2C(=O)NC3C(=O)NC(C(=O)NC(C(=O)NCCCNC(=O)c4ccc(-c5ccccc5)cc4)c4cc(O)cc(O)c4-c4cc3ccc4O)C(O)c3ccc(c(Cl)c3)Oc3cc2cc(c3OC2OC(CO)C(O)C(O)C2OC2CC(C)(N)C(O)C(C)O2)Oc2ccc(cc2Cl)C1O (stereo not drawn) [Vanc-33]
MIC (E. faecalis VSE 1): 0.20 µM (≈ 0.337 µg/mL) | MIC-fold improvement vs. vancomycin (E. faecalis VSE 1): 8 | MIC (E. faecalis VRE 6): 1.56 µM (≈ 2.63 µg/mL) | MIC-fold improvement vs. vancomycin (E. faecalis VRE 6): 128 | MIC (E. faecalis VRE 53): 25 µM (≈ 42.1 µg/mL) | MIC-fold improvement vs. vancomycin (E. faecalis VRE 53): 16 | MIC (E. faecalis VRE 29): 6.25 µM (≈ 10.5 µg/mL) | MIC-fold improvement vs. vancomycin (E. faecalis VRE 29): 64 | MIC (E. faecalis VRE 37): 12.5 µM (≈ 21.1 µg/mL) | IC50 [1]: 57 ± 20 µM | IC50 [2]: 78 ± 16 µM | IC50 [3]: 84 ± 8 µM | IC50 [4]: 73 µM | MIC [5]: 0.20 µM (≈ 0.337 µg/mL) | MIC-fold improvement vs. vancomycin [5]: 4 | MIC (S. aureus VISA/HIP5827): 0.20 µM (≈ 0.337 µg/mL) | MIC-fold improvement vs. vancomycin (S. aureus VISA/HIP5827): 32 | MIC (S. aureus VRSA): 0.78 µM (≈ 1.31 µg/mL) | MIC-fold improvement vs. vancomycin (S. aureus VRSA): 128 | MIC-fold improvement vs. vancomycin (MRSA KS2): 4 | MIC (MRSA KS2): 0.20 µM (≈ 0.337 µg/mL) | MIC-fold improvement vs. vancomycin (MRSA KS6): 2 | MIC (MRSA KS6): 0.39 µM (≈ 0.657 µg/mL) | MIC-fold improvement vs. vancomycin (MRSA KS89): 2 | MIC (MRSA KS89): 0.39 µM (≈ 0.657 µg/mL) | MIC-fold improvement vs. vancomycin (MRSA KS1): 2 | MIC (MRSA KS1): 0.39 µM (≈ 0.657 µg/mL)

CCCCOc1ccc(C(=O)NCCCNC(=O)C2NC(=O)C3NC(=O)C(NC(=O)C4NC(=O)C(CC(N)=O)NC(=O)C(NC(=O)C(CC(C)C)NC)C(O)c5ccc(c(Cl)c5)Oc5cc4cc(c5OC4OC(CO)C(O)C(O)C4OC4CC(C)(N)C(O)C(C)O4)Oc4ccc(cc4Cl)C3O)c3ccc(O)c(c3)-c3c(O)cc(O)cc32)cc1 (stereo not drawn) [Vanc-50]
MIC (E. faecalis VSE 1): 0.39 µM (≈ 0.656 µg/mL) | MIC-fold improvement vs. vancomycin (E. faecalis VSE 1): 4 | MIC (E. faecalis VRE 6): 6.25 µM (≈ 10.5 µg/mL) | MIC-fold improvement vs. vancomycin (E. faecalis VRE 6): 32 | MIC (E. faecalis VRE 53): 12.5 µM (≈ 21 µg/mL) | MIC-fold improvement vs. vancomycin (E. faecalis VRE 53): 32 | MIC (E. faecalis VRE 29): 12.5 µM (≈ 21 µg/mL) | MIC-fold improvement vs. vancomycin (E. faecalis VRE 29): 32 | MIC (E. faecalis VRE 37): 12.5 µM (≈ 21 µg/mL) | IC50 [1]: > 250 µM | IC50 [2]: 86 ± 2 µM | IC50 [3]: 96 ± 4 µM | IC50 [4]: 144 µM | MIC [5]: 0.39 µM (≈ 0.656 µg/mL) | MIC-fold improvement vs. vancomycin [5]: 2 | MIC (S. aureus VISA/HIP5827): 0.78 µM (≈ 1.31 µg/mL) | MIC-fold improvement vs. vancomycin (S. aureus VISA/HIP5827): 8 | MIC (S. aureus VRSA): 0.78 µM (≈ 1.31 µg/mL) | MIC-fold improvement vs. vancomycin (S. aureus VRSA): 128 | MIC-fold improvement vs. vancomycin (MRSA KS2): 4 | MIC (MRSA KS2): 0.20 µM (≈ 0.336 µg/mL) | MIC-fold improvement vs. vancomycin (MRSA KS6): 2 | MIC (MRSA KS6): 0.39 µM (≈ 0.656 µg/mL) | MIC-fold improvement vs. vancomycin (MRSA KS89): 2 | MIC (MRSA KS89): 0.39 µM (≈ 0.656 µg/mL) | MIC-fold improvement vs. vancomycin (MRSA KS1): 4 | MIC (MRSA KS1): 0.20 µM (≈ 0.336 µg/mL)
